Laboratory results reported in publication PMC10347458 (Leukemia, 2023).
Values after ≈ are worked out from the molar mass of the structure shown. Read-outs that look alike come from different tables or passages of the source. Values belong to the compound of their own block, whether it stands above or below them.

Experiments:
[1] = system: LCK-activated T-ALL PDX models; assay: In vivo evaluation of ponatinib efficacy in T-ALL PDXs; design: species or system NSG mice; settings: 30 mg/kg once daily oral, three T-ALL PDX models, blast % in peripheral blood
[2] = format: in vivo, NSG mice; settings: for AUC(0-inf) / CL/F / Cmax / Tmax / half-life / AUC(0-t): NSG, mouse, in vivo, po; for AUC(0-t): AUC0–24hrs
LCK (T316I) in KOPT-K1-R = LCK (T316I) in KOPT-K1-R (Homo sapiens, UniProt P06239, T316I); settings: 100nM, 3 hrs treatment
Chain of LCK (T316I) in KOPT-K1-R (P06239 whole entry T316I): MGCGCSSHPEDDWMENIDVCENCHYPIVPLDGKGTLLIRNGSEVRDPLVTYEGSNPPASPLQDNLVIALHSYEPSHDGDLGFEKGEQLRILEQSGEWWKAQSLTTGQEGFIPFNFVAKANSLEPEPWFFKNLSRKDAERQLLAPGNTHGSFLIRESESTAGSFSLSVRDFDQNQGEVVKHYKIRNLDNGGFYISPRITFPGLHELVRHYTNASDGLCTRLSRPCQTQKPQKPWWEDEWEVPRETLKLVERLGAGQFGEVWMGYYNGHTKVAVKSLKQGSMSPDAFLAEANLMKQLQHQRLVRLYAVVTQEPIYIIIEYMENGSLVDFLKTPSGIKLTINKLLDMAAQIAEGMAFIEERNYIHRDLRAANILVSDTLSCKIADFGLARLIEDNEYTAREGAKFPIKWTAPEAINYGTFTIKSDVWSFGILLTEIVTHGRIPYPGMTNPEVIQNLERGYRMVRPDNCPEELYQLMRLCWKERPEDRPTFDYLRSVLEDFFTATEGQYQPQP

human T-ALL samples = assay: Ex vivo leukemia sensitivity; format: cell-based
[3] = molecular target: pLCK (phosphorylated LCK) (Homo sapiens, UniProt P06239); assay: PD: pLCK; format: in vivo; settings: for Median duration of pLCK/LCK <50% (10th-90th percentile): mice (Table 2)
Chain of pLCK (phosphorylated LCK) (P06239 whole entry): as the sequence (P06239 whole entry T316I) above, with I316T counted along it

pCRKL = settings: chronic myeloid leukemia (CML) patients; cited from earlier work

Structure (SMILES): Cc1ccc(C(=O)Nc2ccc(CN3CCN(C)CC3)c(C(F)(F)F)c2)cc1C#Cc1cnc2cccnn12 [ponatinib]
Leukemia growth in mice vs vehicle control [1]: significantly inhibited leukemia growth | AUC(0-inf) ([2]; 15 mg/kg): 1.53 µg·h/mL | CL/F ([2]; 15 mg/kg): 9.78 L/h/kg | Cmax ([2]; 15 mg/kg): 0.181 µg/mL | Tmax ([2]; 15 mg/kg): 3.04 h | half-life ([2]; 15 mg/kg): 1.92 h | AUC(0-t) ([2]; 15 mg/kg, ponatinib 15 mg (15 mg/kg) single oral dose, NSG mice, median (5th-95th percentile)): 1.53 µg·h/mL | AUC(0-inf) ([2]; 30 mg/kg): 3.01 µg·h/mL | CL/F ([2]; 30 mg/kg): 9.97 L/h/kg | Cmax ([2]; 30 mg/kg): 0.356 µg/mL | Tmax ([2]; 30 mg/kg): 3.08 h | half-life ([2]; 30 mg/kg): 1.92 h | AUC(0-t) ([2]; 30 mg/kg, ponatinib 30 mg (30 mg/kg) single oral dose, NSG mice, median (5th-95th percentile)): 3 µg·h/mL | AUC0–24hrs ([2]; ponatinib 30 mg (30 mg/kg) single oral dose, NSG mice, median (5th-95th percentile)): 2996.56 (2707.46–3351.17) ng hr/mL | Block of LCK phosphorylation (LCK (T316I) in KOPT-K1-R): around 50% | LC50 compared with that of dasatinib (human T-ALL samples; 51 samples with both drugs tested, P =0.0038, Wilcoxon matched-pairs signed rank test): significantly lower | CC50 (human T-ALL samples; Homo sapiens, read-out: Median LC50): 0.433 µM | Samples classified as sensitive to ponatinib (LC50 cutoff 90nM) (human T-ALL samples; all 52 T-ALL cases (n=17)): 32.7% | EC90 ([3]; po, read-out: EC90 (CV%)): 0.063 mg/L (≈ 0.118 µM) | Median duration of pLCK/LCK <50% (10th-90th percentile) ([3]; ponatinib 15 mg/kg oral): 15 mg/kg 10.5 (0, 24.0) hrs/day | Median duration of pLCK/LCK <50% (10th-90th percentile) ([3]; ponatinib 30 mg/kg oral): 30 mg/kg 14.8 (0, 24.0) hrs/day

AUC(0-inf) ([2]; 20 mg/kg): 0.5 µg·h/mL | CL/F ([2]; 20 mg/kg): 40 L/h/kg | Cmax ([2]; 20 mg/kg): 0.102 µg/mL | Tmax ([2]; 20 mg/kg): 1.17 h | half-life ([2]; 20 mg/kg): 0.35 h | AUC(0-inf) ([2]; 40 mg/kg): 1.95 µg·h/mL | CL/F ([2]; 40 mg/kg): 20.5 L/h/kg | Cmax ([2]; 40 mg/kg): 0.366 µg/mL | Tmax ([2]; 40 mg/kg): 1.17 h | half-life ([2]; 40 mg/kg): 0.34 h | AUC(0-t) ([2]; 40 mg/kg): 1.94 µg·h/mL
Structure (SMILES): Cc1nc(Nc2ncc(C(=O)Nc3c(C)cccc3Cl)s2)cc(N2CCN(CCO)CC2)n1 [dasatinib]
Time above 50% pCRKL inhibition considered sufficient to elicit a clinical response (pCRKL): 12.8 hrs per day | Dasatinib sensitivity (LC50 <80nM) observed (human T-ALL samples; adult T-ALL): 9.1% | Dasatinib sensitivity (LC50 <80nM) observed (human T-ALL samples; pediatric T-ALL): 47.5%
